Laboratory results from US11447825B2, “In-vitro methods for the detection of autoimmune diseases or conditions” (Universitätsmedizin der Johannes Gutenberg-Universität Mainz, priority 2015, dated 2022).

Tests used:
Assay type in all cases: cell-based, human
[1] = test system: T-cells cocultured with Treg; assay: Suppressor assay: T-cell proliferation with or without Treg (3H-Tdr incorporation); conditions: for Treg-mediated suppression in cocultures in presence of exogenous IL-6: HC T-cells with Treg plus IL-6 plus test substance, anti-IL-6R mAb 30 ng/ml, Akt VIII inhibitor 0.1 μM, PPARA agonist 0.01 μM
Method: Treg-depleted PBMC (10^5 cells) were stimulated with 0.5 μg/ml anti-CD3 mAb (OKT-3) and cultured in presence or absence of different Treg ratios (Treg:T-cells 1:1 to 1:64) (Jonuleit et al., 2001; Kubach et al., 2007). T-cell proliferation was determined on day three of cultures by addition of 37 kBq/well ^3H-Tdr for additional 16 h. Some experiments were performed by supplementing cultures with neutralizing mAb against anti-IL-6R (30 ng/ml; Tocilizumab; Roacterma; Roche) or supplemented with IL-6 (100 ng/ml or 1000 IU/ml; CellGenix). PKB/c-Akt VIII inhibitor (0.1 μM; Calbiochem, Isozyme-selective, Akt1/2) was added into individual assays. Some experiments were performed by supplementing cultures with PPARA antagonists (GW6471, Tocris, 0.05 μM) or PPARA agonists (GW7646, Tocris, 0.01 μM) together with IL-6 (100 ng/ml or 1000 IU/ml; CellGenix). For flow cytometric analysis of proliferating T-cells Treg-depleted PBMC were washed in warm PBS and stained with 1 μM CFSE and afterwards cocultured with or without Treg (ratio 1:1) and stimulated with 0.5 μg/ml anti-CD3 mAb. Proliferation was assessed on day 3 after excluding dead cells. Analysis was performed on LSRII (BD Bioscience) and evaluated using DIVA software (BD Bioscience).

[2] = test system: T-cells; assay: Toxicity of PPARα modifiers in cell culture; conditions: incubation with PPARα antagonist (Supplemental FIG. 4)
Method: Human cells were cultured in X-VIVO-15 (Lonza, Belgium). Flow cytometric analysis was performed using the following antibodies: anti-human CD3 (SK7), anti-human CD3 (UCHT1), anti-human CD4 (RPA-T4), anti-human CD8 (SK1), anti-human CD14 (M5E2), anti-human CD19 (HIB19), anti-human CD25 (M-A251), all from BD Pharmingen, anti-human CD8 (BW 135/80, Miltenyi Biotec), Fluorokine® biotinylated human Interleukin-6 (R&D systems). Cell viability during flow cytometric analysis was determined using 7-AAD and eFluor506 (eBioscience). For blockade experiments, cultures were supplemented with neutralizing antibody against anti-IL-6R (Tocilizumab), PKB/c-Akt VIII inhibitor (Calbiochem), PPARA antagonists (GW6471, Tocris, 0.05 μM) or PPARA agonists (GW7646, Tocris, 0.01 μM) together with IL-6 (100 ng/ml or 1000 IU/ml; CellGenix).

[3] = test system: PKB/c-Akt; assay: PKB/c-Akt phosphorylation in CD3+ T-cells by flow cytometry; conditions: HC T-cells; for phosphorylation of PKB/c-Akt in presence of IL-6: 24 h with IL-6 plus IL-6R mAb or VIII inhibitor (0.01, 0.1 and 1 μM)
Method: For surface staining of PBMC or T-cells indicated antibodies were incubated for 30 min at 4° C. and washed twice with PBS. Stained cells were measured on LSRII with FACS Diva Software (BD Bioscience). To detect phosphorylated PKB/c-Akt (anti-Akt, pS473, BD Phosflow), cells were fixed at 37° C. (BD Cytofix™ Buffer); permeabilized (BD™ Phosflow Perm Buffer) washed twice with BD Pharmingen™ stain buffer and stained for the indicated antibody according to manufacturer's instructions.
A) Upper panel: CD3^+ T-cells and Treg were coculture in presence (grey) or absence (black) of IL-6 and stimulated with anti-CD3 mAb. […] One of four independent experiments is shown. Lower panel: PBMC from HC were cultured for 24 h with (grey) or without (black) IL-6, washed extensively and CD4^+ or CD8^+ T-cells were isolated. Cells were left unstimulated or were activated with plate-bound anti-CD3 and anti-CD28 mAb for four hours. Shown are expression levels of (PPARGC1A) PGC-1α mRNA in activated CD4^+ and CD8^+ T-cells (TC) normalized to resting T-cells. β-Actin used as housekeeping gene. Bars represent mean of four experiments, p-values relative to TC without IL-6. B) PKB/c-Akt phosphorylation was analyzed by flow cytometry within CD3^+ T-cells after 24 h of culture with (black) or without IL-6 (grey). C) Flow cytometric determination of PKB/c-Akt phosphorylation. […] Shown is the mean fluorescence intensity (MFI) of pPKB/c-Akt in T-cells, one representative result of five independent experiments. […] PKB/c-Akt phosphorylation was analyzed by flow cytometry within CD3^+ T-cells. […]
A) PBMC from HC were cultured for 24 h with media (black), PPARα antagonist (blue) or PPARα agonist (green), washed extensively and expression level of PGC-1α mRNA in activated T-cells was detected by qRT-PCR. β-Actin used as housekeeping gene. […] B) PKB/c-Akt phosphorylation was analysed by flow cytometry within CD3^+ T-cells after 24 h of culture with media (black), PPARα agonist (green) or PPARα antagonist (blue). […]

[4] = test system: PGC-1α; assay: PGC-1α (PPARGC1A) mRNA expression in activated T-cells by qRT-PCR; conditions: HC PBMC 24 h with IL-6, then anti-CD3/anti-CD28 for four hours; normalized to resting T-cells
Method: RNA was extracted from 2×10^6 cells using Rneasy Kit (Qiagen) according to manufacturer's instructions. cDNA was generated by reverse transcription with Sensiscript RT Kit (Qiagen) and amplified by quantitative RT-PCR (qRT-PCR, 7300 Real Time PCR System (Applied Biosystem) and the QuantiFAST PCR Kit (Qiagen). Relative IL-6 mRNA (QuantiTect Primer, Qiagen) expression levels were normalized to EF1-α or β-Actin. Relative PPARGC1α, IRF8, FGF19, HNF4A, Hdac, RORA mRNA was analyzed with QuantiTect Primer Assay (Qiagen) according to manufacturer's instructions and expression levels were normalized to β-ACT.
A) Upper panel: CD3^+ T-cells and Treg were coculture in presence (grey) or absence (black) of IL-6 and stimulated with anti-CD3 mAb. […] One of four independent experiments is shown. […] B) PKB/c-Akt phosphorylation was analyzed by flow cytometry within CD3^+ T-cells after 24 h of culture with (black) or without IL-6 (grey). […] Shown is the mean fluorescence intensity (MFI) of pPKB/c-Akt in T-cells, one representative result of five independent experiments. […] PKB/c-Akt phosphorylation was analyzed by flow cytometry within CD3^+ T-cells. […]
A) PBMC from HC were cultured for 24 h with media (black), PPARα antagonist (blue) or PPARα agonist (green), washed extensively and expression level of PGC-1α mRNA in activated T-cells was detected by qRT-PCR. β-Actin used as housekeeping gene. […]

Question: What does the source list for `CCC(=O)NC[C@H](Cc1ccc(OCCc2nc(-c3ccccc3)oc2C)cc1)N/C(C)=C\C(=O)c1ccc(C(F)(F)F)cc1` [PPARα antagonist]?
Answer: Treg resistance in cocultures without IL-6 ([1]; T-cells and Treg, anti-CD3 mAb, PPARA antagonist 0.05 μM alone): Treg resistance could be induced; T-cell proliferation in absence of Treg ([1]; no Treg, agonist 0.01 μM, antagonist 0.05 μM): did not influence the T-cell proliferation significantly; toxicity [2]: without inducing toxicity

Question: `O=c1[nH]c2ccccc2n1C1CCN(Cc2ccc(-c3nc4cc5[nH]cnc5cc4nc3-c3ccccc3)cc2)CC1` [c-Akt inhibitor VIII] was tested. Which “Treg-mediated suppression in cocultures in presence of exogenous IL-6” value [1] did it give?
Answer: The value was “restored IL-6-induced Treg resistance”.

Question: And the “phosphorylation of PKB/c-Akt in presence of IL-6” value [3]?
Answer: Its value is “inhibited phosphorylation of PKB/c-Akt”.

Question: For “IL-6: exogenous cytokine IL-6 (100 ng/ml or 1000 IU/ml; CellGenix)”, which “control of T-cells by Treg in suppressor cocultures” value ([1]; Treg-sensitive T-cells from HC with Treg, anti-CD3 mAb, IL-6 supplemented (100 ng/ml or 1000 IU/ml), day three) is on record?
Answer: The value was “prevented efficient control of T-cells by Treg”.

Question: And the “PGC-1α expression in activated CD4+ T-cells” value [4]?
Answer: The value was “down regulated PGC-1α expression”.

Question: What about the “PGC-1α expression in activated CD8+ T-cells” value [4] of the same compound?
Answer: The value was “prevented the upregulation of PGC-1α”.

Question: And the “phosphorylation of PKB/c-Akt in T-cells” value ([3]; 24 h culture with IL-6)?
Answer: The value was “enhanced phosphorylation of PKB/c-Akt”.

Question: For “anti-IL-6R mAb: neutralizing mAb against anti-IL-6R (Tocilizumab; Roacterma; Roche)”, which “Treg-mediated suppression in cocultures in presence of exogenous IL-6” value [1] is on record?
Answer: Its value is “restored IL-6-induced Treg resistance”.

Question: And the “phosphorylation of PKB/c-Akt in presence of IL-6” value [3]?
Answer: Its value is “inhibited phosphorylation of PKB/c-Akt”.
